Source: patent US20230212517A1, “METHODS FOR GENERATING HEMATOPOIETIC STEM CELLS” (The Brigham and Women's Hospital, Inc., priority 2018, published 2023)

How the values were obtained:
[1] = system: bone marrow-derived Gr1+Mac1+ sorted (donor) neutrophils; experiment: ELISA quantification of myeloperoxidase (MPO) in donor neutrophils of primary transplant; type: in vivo, mouse; settings: overnight culture; primary transplant of treated E11.5 AGM
Method: Pulsating blood vessels like conditions were stimulated in vitro using FLEXCELL FX-4000 cell stretching bioreactor machine. To analyze roles of pharmacological targets in regulating the endothelial-to-HSC transition, mouse embryo-derived AGM or whole mouse embryo were exposed ex vivo with biomechanical stretching, chemicals, or drugs. Next, hematopoietic colony formation assays were performed by incubating mouse AGM-derived cells in StemCell M3434 media for seven days. Serial transplantation of AGM-derived HSCs in lethally irradiated SJL mice were performed. The stem cell frequency upon biomechanical stretching was analyzed using a limiting dilution assay. To characterize properties of AGM-HSC-derived blood cells in primary transplants, percentage chimerism and reconstitution was measured using FACS, globin transcripts were analyzed using quantitative reverse transcriptase-PCR, myeloperoxidase amount was measured using PICOKINE ELISA kit, TCR-β rearrangement was analyzed using PCR for TCR-β locus, pre-immune IG detection was analyzed using Thermo-Fisher Mouse Ig Isotyping kit, and delayed-type hypersensitivity was analyzed by injecting sheep RBC (Rockland Immunochemicals) in the footpad of pre-sensitized mice. […]

E11.5 AGM-derived HSCs = experiment: Serial transplantation of treated E11.5 AGM-derived HSCs into lethally irradiated mice; type: in vivo, mouse; settings: for multi-lineage reconstitution (myeloid, T-cells, B-cells) in primary transplant / peripheral blood chimerism / engraftment in primary transplant: primary recipients; for multi-lineage reconstitution (myeloid, T-cells, B-cells) in primary transplant: week 16; for peripheral blood chimerism / engraftment in primary transplant: weeks 8-16, three embryo equivalent treated AGM donor cells
Method: Pulsating blood vessels like conditions were stimulated in vitro using FLEXCELL FX-4000 cell stretching bioreactor machine. To analyze roles of pharmacological targets in regulating the endothelial-to-HSC transition, mouse embryo-derived AGM or whole mouse embryo were exposed ex vivo with biomechanical stretching, chemicals, or drugs. Next, hematopoietic colony formation assays were performed by incubating mouse AGM-derived cells in StemCell M3434 media for seven days. Serial transplantation of AGM-derived HSCs in lethally irradiated SJL mice were performed. The stem cell frequency upon biomechanical stretching was analyzed using a limiting dilution assay. To characterize properties of AGM-HSC-derived blood cells in primary transplants, percentage chimerism and reconstitution was measured using FACS, globin transcripts were analyzed using quantitative reverse transcriptase-PCR, myeloperoxidase amount was measured using PICOKINE ELISA kit, TCR-β rearrangement was analyzed using PCR for TCR-β locus, pre-immune IG detection was analyzed using Thermo-Fisher Mouse Ig Isotyping kit, and delayed-type hypersensitivity was analyzed by injecting sheep RBC (Rockland Immunochemicals) in the footpad of pre-sensitized mice.
For primary transplantation, three-embryo equivalents of untreated or treated (cyclic strain or 25 μM Yoda1) AGMs plus splenic helper cells (˜500,000 per mouse) were injected into lethally irradiated (split dose […]) Cd45.1 (SJL) mice by retro-orbital injection. For secondary and tertiary transplants, the bone marrow was isolated (legs, arm, pelvic bone, spine, sternum) from the transplanted mice. The bone marrow was loaded on a FICOLL gradient (HISTOPAQUE-1083 solution, Sigma-Aldrich), and the cells from the buffy coat incubated with biotin-conjugated lineage antibodies and streptavidin microbeads (Miltenyi Biotec). Next, the lineage negative (Lin) cells were separated with MACS LS Columns (Miltenyi Biotec), and the donor Cd45.2 Lin^−Sca1^+-Kit^+ (LSK) cells sorted with a MoFlo Beckman Coulter sorter. Subsequently, the sorted Cd45.2 LSK cells were mixed with Cd45.1 splenic helper cells (˜500,000 per mouse) and transplanted into Cd45.1 irradiated (split dose […]) SJL mice by retro-orbital injection.
AGM cells from explants and ex vivo were stained with Sca1-Pacific-Blue (E13-161.7, Biolegend) and Flk1-APC-Cy7 (Avas 12α1, BD). Blood from transplanted mice was stained with the following antibody cocktail: Cd45.2-Pacific-Blue (104, Biolegend), Cd45.1-FITC (A20, Biolegend), Cd3-PE (145-2C11, Biolegend), Cd8-PE (53-6.7, Biolegend), Mac1-APC (M1/70, Biolegend), Gr1-APC (108412, Biolegend), Cd19-APC-CY7 (6D5, Biolegend), B220-APC-CY7 (RA3-6B2, Biolegend).
Cells from the bone marrow, spleen, thymus, and lymph node from mice transplanted with E11.5 AGM cells were stained with the following antibody panels: Bone marrow LT-HSC: Cd45.2-FITC (104, Biolegend), Ter119-Biotin (TER-119 BD), Gr1-Biotin (RB6-8C5, BD), Cd5-Biotin (53-7.3, BD), Cd8a-Biotin (53-6.7, BD), B220-Biotin (RA3-6B2, BD), Streptavidin-Pacific Blue (eBioscience), Sca1-PE-CY7 (D7, eBioscience), cKit-APC (2B8, eBioscience), Cd48-APC-CY7 (HM48-1, BD), Cd150-PE-CY5 (TC15-12F12.2, Biolegend). Erythroid development RI-RV in bone marrow: Cd45.2-Pacific-Blue (104, Biolegend), Cd45.1-FITC (A20, Biolegend), Ter119-APC (TER-119, Biolegend), Cd71-PE (R17217, eBioscience). Bone marrow granulocytes: Cd45.2-Pacific-Blue (104, Biolegend), Cd45.1-FITC (A20, Biolegend), Gr1-PE, (RB6-8C5, BD); Mac1-APC (M1/70, Biolegend). Spleen, thymus and lymph nodes T Cells: Cd45.2-Pacific-Blue (104, Biolegend), Cd45.1-FITC (A20, Biolegend), Cd8-PE (53-6.7, Biolegend), Cd4-APC (RM4-5, eBioscience). Spleen, thymus and lymph node myeloid and B cells: Cd45.2-Pacific-Blue (104, Biolegend), Cd45.1-FITC (A20, Biolegend), Cd19-APC-CY7 (6D5, Biolegend), Mac1-APC (M1/70, Biolegend). We performed all FACS analyses on a BD Fortessa cytometer. […]

Clc1cccc(Cl)c1CSc1nnc(-c2cnccn2)s1 [Yoda1, 2-[5-[[(2,6-Dichlorophenyl)methyl]thio]-1,3,4-thiadiazol-2-yl]-pyrazine]
myeloperoxidase (MPO) level of donor neutrophils [1]: reconstitute to functional myeloid cells displaying sufficient MPO levels
multi-lineage reconstitution (myeloid, T-cells, B-cells) in primary transplant (E11.5 AGM-derived HSCs): stimulates the formation of HSCs that reconstitute to the blood
multi-lineage reconstitution (myeloid, T-cells, B-cells) in primary transplant (E11.5 AGM-derived HSCs; listed as Piezo1 activator): normal multi-lineage reconstitution
peripheral blood chimerism / engraftment in primary transplant (E11.5 AGM-derived HSCs): stimulates the formation of HSCs
peripheral blood chimerism / engraftment in primary transplant (E11.5 AGM-derived HSCs; listed as Piezo1 activator): higher engraftment
multi-lineage reconstitution in secondary transplant (E11.5 AGM-derived HSCs; secondary recipients, week 12): produces HSCs that can serially reconstitute to the blood
peripheral blood chimerism in secondary transplant (E11.5 AGM-derived HSCs; secondary recipients, weeks 8-12, 2000 sorted Lin-Sca1+c-Kit+ HSPCs): produces HSCs that have serial engraftment and self-renewal capacities
amount of Lin-Sca1+c-Kit+Cd48-Cd150+ HSCs in bone marrow of primary recipients (E11.5 AGM-derived HSCs; vs. control AGM): two- to three-times higher amount
